Experimental data taken from patent publication US10233422B2, “Pluripotent cell lines and methods of use thereof” (Parkinson's Institute, priority 2008, dated 2019).

Test system: paraquat-treated mouse brain
Assay: Ex vivo screening of anti-aggregation compounds: Thioflavin S deposits in paraquat-treated mouse brain
Settings: 250 uM, FIG. 33D-E

Structure (SMILES): Oc1ccccc1O [Catechol, catechol]
- Thioflavin S deposits (which label aggregate protein): Diminished Thioflavin S deposits
